Measurements taken from patent publication US20240270701A1, “BETA ADRENERGIC AGONIST AND METHODS OF USING THE SAME” (Curasen Therapeutics, Inc., priority 2021, published 2024).
Read-outs that look alike come from different tables or passages of the source.

How the values were obtained:
B2-AR = biological target: T1, B2-AR (Homo sapiens, UniProt P07550); experiment: cAMP Gs dynamic HTRF assay, cells expressing beta-adrenergic receptor (CHO-K1), B2-AR; assay type: cell-based; settings: for EC50: cAMP HTRF, read-out: pEC50 [B2-AR] (converted); for Emax: relative to full agonist isoproterenol, read-out: Emax (% iso) (%) [B2-AR]
T1 construct: expressed in transfected cells; host or cells: CHO-K1
T1 sequence (P07550 whole entry, species assumed): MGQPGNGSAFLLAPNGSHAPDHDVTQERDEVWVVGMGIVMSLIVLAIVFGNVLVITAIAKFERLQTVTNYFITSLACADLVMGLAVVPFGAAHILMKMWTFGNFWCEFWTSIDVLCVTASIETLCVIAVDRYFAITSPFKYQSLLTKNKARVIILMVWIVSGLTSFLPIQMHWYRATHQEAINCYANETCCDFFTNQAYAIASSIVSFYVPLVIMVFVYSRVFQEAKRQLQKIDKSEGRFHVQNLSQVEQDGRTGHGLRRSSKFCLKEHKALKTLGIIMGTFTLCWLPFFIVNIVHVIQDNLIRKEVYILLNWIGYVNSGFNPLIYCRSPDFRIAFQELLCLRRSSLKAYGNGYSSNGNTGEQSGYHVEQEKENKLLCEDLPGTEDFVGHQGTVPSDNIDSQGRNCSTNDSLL

B1-AR = biological target: T2, B1-AR (Homo sapiens, UniProt P08588); experiment: cAMP Gs dynamic HTRF assay, cells expressing beta-adrenergic receptor (CHO-K1), B1-AR; assay type: cell-based; settings: for EC50: cAMP HTRF, read-out: pEC50 [B1-AR] (converted); for Emax: relative to full agonist isoproterenol, read-out: Emax (% iso) (%) [B1-AR]
T2 construct: expressed in transfected cells; host or cells: CHO-K1
T2 sequence (P08588 whole entry, species assumed): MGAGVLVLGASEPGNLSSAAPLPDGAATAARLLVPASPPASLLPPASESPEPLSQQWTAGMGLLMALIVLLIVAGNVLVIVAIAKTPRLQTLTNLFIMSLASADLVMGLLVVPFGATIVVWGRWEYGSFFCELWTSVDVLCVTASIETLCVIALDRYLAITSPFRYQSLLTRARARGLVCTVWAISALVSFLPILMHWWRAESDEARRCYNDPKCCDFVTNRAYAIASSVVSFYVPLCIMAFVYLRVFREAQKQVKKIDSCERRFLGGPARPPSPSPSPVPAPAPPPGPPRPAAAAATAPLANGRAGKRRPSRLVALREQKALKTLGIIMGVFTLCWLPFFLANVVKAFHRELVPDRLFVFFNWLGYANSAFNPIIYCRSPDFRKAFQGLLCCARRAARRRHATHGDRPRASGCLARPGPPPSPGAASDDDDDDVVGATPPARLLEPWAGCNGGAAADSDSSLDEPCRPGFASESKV

Row | SMILES | EC50 (B2-AR; CHO-K1 cells) [nM] | Emax (B2-AR; CHO-K1 cells) [%] | EC50 (B1-AR) [nM] | Emax (B1-AR) [%] | Emax (B2-AR; CHO-K1, CHO-K1 cells) [%]
1 | Cn1ccc(CNC[C@H](O)c2ccc(F)c3[nH]ncc23)n1 [I-65] | 100 to 1000 | 70 to 90 | 100 to 1000 | 50 to 70 | 
2 | CC(C)(C)NC[C@H](O)c1cccc2c(F)n[nH]c12 [I-85] | 100 to 1000 |  | 100 to 1000 | 70 to 90 | 50 to 70
3 | CC1(NC[C@H](O)c2cncc3[nH]ncc23)CCC1 [I-156] | 10 to 100 | > 90 | 100 to 1000 | 70 to 90 | 
4 | CC(C)(C)C(C)(C)NC[C@H](O)c1cc(C#N)cc2[nH]ncc12 [I-4] | 100 to 1000 |  | > 1000 | < 50 | > 90
5 | CC(C)CNC[C@H](O)c1cncc2[nH]ncc12 [I-163] | > 1000 | 50 to 70 | > 1000 | 70 to 90 | 
6 | CCC(C)(CC)NC[C@H](O)c1cccc2[nH]ncc12 [I-23] | < 10 | > 90 | < 10 | > 90 | 
7 | CC1(NC[C@H](O)c2cccc3[nH]nc(Cl)c23)CC1 [I-100] | < 10 |  | < 10 | 70 to 90 | > 90
8 | CC(C)NC[C@H](O)c1cccc2[nH]cc(F)c12 [I-112] | < 10 |  | < 10 | > 90 | > 90
9 | Cc1cc([C@@H](O)CNC(C)(C)C)c2cn[nH]c2n1 [I-67] | < 10 |  | 10 to 100 | > 90 | > 90
10 | CC(C)NC[C@H](O)c1ccc(Cl)c2[nH]ncc12 [I-122] | < 10 |  | < 10 | 70 to 90 | 70 to 90
11 | CC(C)(C)NC[C@H](O)c1cc(C2CC2)cc2[nH]ncc12 [I-103] | 10 to 100 |  | > 1000 | 50 to 70 | 50 to 70
12 | Cc1ncccc1[C@@H](O)CNC1CC(F)(F)C1 [I-181] | > 1000 | 50 to 70 | > 1000 | < 50 | 
13 | CC1(N[C@@H](CO)c2cncc3[nH]ncc23)CC1 [I-149] | > 1000 | 70 to 90 | > 1000 | < 50 | 
14 | CC(C)(C)NC[C@H](O)c1ccc2nccnc2c1 [I-83] | 10 to 100 | 50 to 70 | 10 to 100 | 70 to 90 | 
15 | CCC(C)(C)NC[C@H](O)c1cncc2[nH]ncc12 [I-53] | 10 to 100 | 70 to 90 | 100 to 1000 | 70 to 90 | 
16 | CC1(N[C@H](CO)c2cncc3[nH]ncc23)CC1 [I-148] | > 1000 | 70 to 90 | > 1000 | 70 to 90 | 
17 | O[C@@H](CNC1CC1)c1cccc2[nH]nc(F)c12 [I-140] | < 10 | > 90 | < 10 | > 90 | 
18 | CNc1ncc([C@@H](O)CNC(C)(C)C)cn1 [I-70] | 10 to 100 | 50 to 70 | 100 to 1000 | 70 to 90 | 
19 | Cc1nc(N)c(Cl)cc1[C@@H](O)CNC(CO)CO [I-145] | > 1000 | 70 to 90 | > 1000 | 70 to 90 | 
20 | O[C@@H](CNC1CC1)c1cncc2[nH]ncc12 [I-164] | 100 to 1000 | > 90 | 100 to 1000 | 70 to 90 | 
21 | CCc1cc([C@@H](O)CNC(C)(C)C)c2cn[nH]c2c1 [I-105] | 100 to 1000 |  | > 1000 | < 50 | < 50
22 | Cc1nc(N)c(Cl)cc1[C@@H](O)CNC1CC(F)(F)C1 [I-178] | 100 to 1000 |  | > 1000 | 50 to 70 | > 90

Row | SMILES | EC50 (B2-AR; CHO-K1 cells) [nM] | Emax (B2-AR; CHO-K1 cells) [%] | EC50 (B1-AR) [nM] | Emax (B1-AR) [%] | Emax (B2-AR; CHO-K1, CHO-K1 cells) [%]
23 | Cc1c(Cl)[nH]c2cccc([C@@H](O)CNC(C)(C)C)c12 [I-115] | 100 to 1000 |  | > 1000 | 70 to 90 | 70 to 90
24 | CC(C)(C)NC[C@H](O)c1cccc2[nH]c(=O)[nH]c12 [I-94] | 100 to 1000 | 70 to 90 | 100 to 1000 | 70 to 90 | 
25 | CCC(C)(C)NC[C@H](O)c1cccc2[nH]nc(F)c12 [I-48] | < 10 |  | < 10 | > 90 | > 90
26 | CC(C)NC[C@H](O)c1cccc2[nH]nc(F)c12 [I-139] | < 10 | > 90 | < 10 | > 90 | 
27 | C[C@H](NC[C@H](O)c1cccc2[nH]ncc12)C(C)(C)C [I-6] | < 10 |  | 100 to 1000 | 70 to 90 | > 90
28 | CC(C)(C)NC[C@H](O)c1cccc2[nH]c(=O)sc12 [I-147] | < 10 | > 90 | < 10 | 70 to 90 | 
29 | Cc1cc([C@@H](O)CNC(C)(C)C)cc2cccnc12 [I-71] | 10 to 100 | < 50 | 100 to 1000 | 50 to 70 | 
30 | CC(C)(CO)NC[C@H](O)c1cc(C#N)cc2[nH]ncc12 [I-151] | 100 to 1000 |  | 100 to 1000 | 70 to 90 | > 90
31 | Cc1n[nH]c2cc(F)cc([C@@H](O)CNC(C)(C)C)c12 [I-61] | < 10 | 70 to 90 | 10 to 100 | 70 to 90 | 
32 | CC(C)(C)NC[C@H](O)c1cc(C(F)F)cc2[nH]ncc12 [I-123] | 100 to 1000 |  | > 1000 | 70 to 90 | 70 to 90
33 | Cc1ccc([C@@H](O)CNC(C)(C)C)c2c(F)n[nH]c12 [I-60] | < 10 |  | < 10 | 70 to 90 | 70 to 90
34 | CC(C)CNC[C@H](O)c1ccc2[nH]cc(F)c2c1 [I-124] | 100 to 1000 |  | > 1000 | 70 to 90 | > 90
35 | O[C@@H](CNC1CCC1)c1cncc2[nH]ncc12 [I-158] | 100 to 1000 | > 90 | 100 to 1000 | > 90 | 
36 | CC(C)(CO)NC[C@H](O)c1cncc2[nH]ncc12 [I-162] | 100 to 1000 | > 90 | > 1000 | > 90 | 
37 | CC(C)(C)NC[C@@H](O)c1ccc(N)nn1 [I-141] | 100 to 1000 |  | > 1000 | > 90 | > 90
38 | CC(C)C(C)(C)NC[C@H](O)c1ccc(F)c2[nH]ncc12 [I-22] | < 10 | > 90 | 10 to 100 | > 90 | 
39 | Cn1ncc2c([C@@H](O)CNC(C)(C)C)ccc(F)c21 [I-56] | < 10 | 50 to 70 | 10 to 100 | 50 to 70 | 
40 | CC1(NC[C@H](O)c2cccc3[nH]nc(Cl)c23)CCC1 [I-96] | < 10 | > 90 | < 10 | 70 to 90 | 
41 | CC[C@@H](C)NC[C@H](O)c1cc(F)cc2[nH]ncc12 [I-41] | < 10 | > 90 | < 10 | > 90 | 
42 | CC1(NC[C@H](O)c2cc(C#N)cc3[nH]ncc23)CC1 [I-155] | 10 to 100 |  | 100 to 1000 | 70 to 90 | > 90
43 | CC(C)(C)NC[C@H](O)c1cccc2[nH]nc(C(N)=O)c12 [I-95] | 100 to 1000 | 50 to 70 | 100 to 1000 | 70 to 90 | 
44 | CCC(C)(C)NC[C@H](O)c1cc(Cl)c(N)nc1C [I-171] | < 10 |  | 10 to 100 | 70 to 90 | > 90
